In patent US10551384B2, “MTOR kinase mutations and methods of use thereof” (RUTGERS, THE STATE UNIVERSITY OF NEW JERSEY, priority 2016, dated 2020):
Entries after “also recorded” stand apart in the source; their conditions may differ.

How the values were obtained:
[1] = system: SW480 colorectal cancer cells carrying L2185A mutant mTOR alleles; assay: SRB growth assay of SW480 cells carrying L2185A mutant mTOR; format: cell-based, human; details: various concentrations, 2 day
Method: (FIG. 5A) SW480 cells carrying homozygous WT mTOR or L2185A mutant alleles were treated with various concentrations of AZD8055, INK-128, OSI-027 and PP242 for 2 day. Growth of SW480 cells was measured by SRB assay. Data represent means±SD in three independent experiments. (FIG. 5B) SW480 cells carrying homozygous WT and L2185A mutant mTOR allele were treated with a single dose of AZD8055 (100 nM), INK-128 (100 nM), OSI-027 (6,000 nM), and PP242 (2,000 nM) for different times. Cell growth was measured by SRB assay. The drug carrier DMSO was used as a control. Data represent means±SD in three independent experiments. (FIG. 5C) SW480 cells carrying homozygous WT and L2185A mutant mTOR were treated with various concentrations of INK-128, OSI-027, AZD8055 and PP242 for 1 hr. The effect on the level of P-S6K, S6K, P-4E-BP1, 4EB-P1, P-AKT and AKT was analyzed by immunoblot. […] The growth of SW480 cells was measured by SRB assay. Data represent means±SD in three independent experiments.
Cancer cell lines were maintained in DMEM or RPMI 1640, supplemented with 10% fetal bovine serum (Invitrogen) and 1% penicillin/streptomycin (Invitrogen). CRISPR/cas9 technology was used to engineer mutant mTOR allele in SW480 colorectal and H460 lung cancer cells. Briefly, The target sequence for mTOR, […] (SEQ ID NO: 3 was designed through the online tool at crispr.mit.edu, and cloned into pSPCas9(BB)-2A-GFP vector (PX458 in Addgene). Genomic mTOR mutation was engineered using a protocol as described (Ran, et al. (2013). Nature protocols 8, 2281-2308) and was confirmed by targeted sequencing.
Antibodies against tubulin, S6K, phospho-S6K (Thr389), 4E-BP1, phospho-4E-BP1 (Thr37/46), Akt, phospho-Akt (Thr308), and phospho-Akt (Ser473) were purchased from Cell Signaling Technology. […] For drug sensitivity test, cancer cells were seeded in 96-well plates at a density of 2,000 cells per well. 24 hours later, different concentrations of mTOR inhibitors were added in quadruplicate. Cell growth was measured by the sulforhodamine B (SRB) assay as previously described (Vichai, V., and Kirtikara, K. (2006). Nature protocols 1, 1112-1116).

TOR2-mTOR L2185C mutant = assay: Yeast spotting assay for drug resistance, TOR2-mTOR L2185C; format: cell-based, S. cerevisiae; details: 37° C., amphotericin B present (except OSI-027)
Text: FIGS. 4A-C. […] (FIG. 4A) Scheme of a yeast-based screen for drug-resistant mutations in mTOR kinase domain. mTOR kinase domain is amplified by error-prone PCR to generate randomized mutations, which is then recombined in frame into the TOR2-mTOR plasmid by gap-repair in tort-dg cells, and is selected on SC-leucine minus plates. Replica plating is then made onto SC-leucine plates containing DMSO or mTOR kinase inhibitor for selection of drug resistant clones. (FIG. 4B) tor2-dg cells expressing WT or mutant TOR2-mTOR were serially diluted by 10-fold and assayed for sensitivity to different mTOR kinase inhibitors in the presence of amphotericin B. Vector and TOR2 were used as controls. Drug resistant assay was performed at 37° C. in the presence of amphotericin B (except OSI-027). (FIG. 4C) Systematic mutational analysis of L2185 on drug resistance. tort-dg cells expressing WT or mutant TOR2-mTOR carrying all possible mutations at L2185 were serially diluted by 10-fold and tested for sensitivity to different mTOR kinase inhibitors at 37° C.
To enhance yeast cell permeability, log phase W303 tort-dg cells were spread evenly on SD-Leu agarose plates. After drying, small sterile filter discs were placed on the surface and 5 μl of indicated mTOR inhibitors or DMSO were applied to each disc with or without adding 5 μl of amphotericin B (10 μM), miconazole (50 μM) or caspofungin (50 μM). Plates were incubated at 37° C. for 3 day. Drug resistance profiles of TOR2-mTOR mutant cells were determined by the spotting assay. For this assay, 10-fold serial dilutions of cells were spotted on SD-leu plates in the presence of indicated mTOR inhibitors with or without amphotericin B (200 nM) and incubated at 37° C. for 3 day.

## CC(C)n1nc(-c2ccc3oc(N)nc3c2)c2c(N)ncnc21 [INK128]
[1]
  drug resistance/sensitivity of cell growth, SW480 L2185A vs WT: confers resistance
TOR2-mTOR L2185C mutant
  drug resistance/sensitivity of TOR2-mTOR L2185C mutant yeast: confer resistance; also recorded: conferring resistance
